Reference: patent US9890185B2, “Urea derivatives useful as kinase inhibitors” (Respivert Limited, priority 2013, dated 2018)

Tests used:
PBMCs = test: IFN gamma release in CD3/CD28 stimulated PBMC cells (assay c); assay type: cell-based; settings: Homo sapiens, read-out: IC50 Values for Inhibition of Cytokine Release, PBMCs IFNγ
Summary of the method: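 Healthy-donor PBMCs, isolated by density gradient, were plated in wells pre-coated with anti-CD3 (0.3 μg/mL) and anti-CD28 (3 μg/mL) antibodies, then exposed to compound for 3 days under normal culture conditions. IL-2 and IFN gamma in supernatants were measured by sandwich ELISA; IC50 taken from the dose-response curve.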

HT29 cells = test: IL-1β-induced IL-8 release in HT29 cells (assay d); assay type: cell-based; settings: Homo sapiens, HT-29; IL-1β-stimulated HT29 cells; read-out: IC50 Values for Inhibition of Cytokine Release, HT29 cells IL-8
Description: HT29 cells, a human colon adenocarcinoma cell line, are plated in a 96 well plate (24 hrs) and pre-treated with compounds at the desired concentration for 2 hours before addition of 5 ng/mL of IL-1β (Abcam) for 24 hours. Supernatants are harvested for IL-8 quantification by Sandwich ELISA (Duo-set, R&D System). The IC50 is determined from the dose response curve.

d-U937 cells = test: Accumulation of β catenin in d-U937 cells (assay m); assay type: cell-based, human; settings: percentage relative to Reference Compound at 1 μg/mL
Summary of the method: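 Read-out: colourimetric cell-based immunoassay for endogenous β-catenin (OD450 minus 655 reference), normalised to crystal violet absorbance at 595 nm. Test compound or vehicle was applied for 18 hr to U937 monocytes first differentiated with PMA (100 ng/mL) for 48–72 hr.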

Syk = Syk (Homo sapiens (Human), UniProt P43405); test: KINOMEscan enzyme binding assay (Syk); settings: KINOMEscan technology; read-out: Dissociation Constant, Syk
Description: (§1) Kinase enzyme binding activities of compounds disclosed herein may be determined using a proprietary assay which measures active site-directed competition binding to an immobilized ligand (Fabian, M. A. et al., Nature Biotechnol., 2005, 23:329-336). These assays may be conducted by DiscoverX (formerly Ambit; San Diego, Calif.). The percentage inhibition produced by incubation with a test compound may be calculated relative to the non-inhibited control.

p38 MAPK α = p38 MAPK α (Homo sapiens (Human), UniProt Q16539); test: KINOMEscan enzyme binding assay (p38 MAPKα); settings: KINOMEscan technology; read-out: Dissociation Constant, p38 MAPK α
Description: as §1

Sequence of p38 MAPK α (Q16539 whole entry): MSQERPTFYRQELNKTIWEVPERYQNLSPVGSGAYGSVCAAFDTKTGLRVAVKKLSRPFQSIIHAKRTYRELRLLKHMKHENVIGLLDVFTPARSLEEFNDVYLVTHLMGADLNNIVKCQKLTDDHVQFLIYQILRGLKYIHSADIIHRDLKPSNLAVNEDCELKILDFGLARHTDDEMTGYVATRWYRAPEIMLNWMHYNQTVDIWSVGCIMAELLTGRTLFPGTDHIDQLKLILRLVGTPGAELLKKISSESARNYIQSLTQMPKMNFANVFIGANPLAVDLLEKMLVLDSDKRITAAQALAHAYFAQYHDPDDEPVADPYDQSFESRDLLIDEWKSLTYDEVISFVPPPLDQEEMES

- IC50 (HT29 cells): 4.3 nM
- Kd (Syk): 29 nM
- Kd (p38 MAPK α): 26 nM
SMILES: COCCOCCOCCOc1cc(Nc2cc(Oc3ccc(NC(=O)Nc4cc(C(C)(C)C)cc(S(C)(=O)=O)c4OC)c4ccccc34)ccn2)cc(OC)c1 [Example 9, 1-(5-(tert-Butyl)-2-methoxy-3-(methylsulfonyl)phenyl)-3-(4-((2-((3-methoxy-5-(2-(2-(2-methoxyethoxy)ethoxy)ethoxy)phenyl)amino)pyridin-4-yl)oxy)naphthalen-1-yl)urea]
- IC50 (PBMCs): 9.4 nM
- % β-catenin induction (d-U937 cells; test compound 1 μg/mL): 4.5%
- % β-catenin induction (d-U937 cells; test compound 5 μg/mL): 5.5%
- % β-catenin induction (d-U937 cells; test compound 10 μg/mL): 0.0%
